Measurements reported in patent publication US20250059139A1, “COMPOUNDS FOR TREATMENT OF CANCER” (THE JOHNS HOPKINS UNIVERSITY, priority 2021, published 2025).

Legend:
human AHR = target: T1, human AHR (Homo sapiens, UniProt P35869); assay: Photo-affinity ligand (PAL) competitive binding to human AHR in liver cytosol of hAHR transgenic mice
T1 construct: from tissue; host or cells: liver cytosol of liver-specific hAHR transgenic mice
Procedure: AHR Binding Assay. Photo-affinity competitive ligand binding to the human AHR was performed as described previously (Brennen 2021).
This raises the issue of whether the induction of AHR target genes is a result of TasQ or one of its metabolites binds to AHR as a ligand. To test whether TasQ is an AHR ligand, liver cytosol lacking microsomal CYPs was isolated from liver-specific human AHR (hAHR)-expressing transgenic mice.

[1] = system: CWR22-RH human prostate cancer PDXs; assay: In vivo growth of CWR22-RH xenografts in castrate NSG male mice; conditions: for CWR22-RH Tumor Growth (% inhibition +/− SD): castrate mice treated orally over a 3 week period, n = 5/group
Description: Prostate Cancer Models. The source, history, and characteristics of the human prostate cancer cell lines and PDXs used, as well as cell culture conditions for their in vitro maintenance and the in vivo protocol for xenograft growth in triple immune-deficient NSG (i.e. NOD.Cg-PrkdcScidIl2rgtmlWji/Szj), adult (>8 week old) male mice obtained from the Sidney Kimmel Comprehensive Cancer Center (SKCCC) Animal Core Facility are described previously (Isaacs 2013; Brennen et al. JCI Insight. 2021, 6(8):e146827; Zhu et al. Oncogene 2020, 39(45): 6935-6949). Similar information concerning the TRAMP-C2 and B6CaP mouse prostate cancers originating in a C57BL/6J male mice are described previously (Foster et al. Cancer Res. 1997, 57: 3325-3330; Simons et al. Oncotarget. 2019, 10(64):6845-6854). In vitro growth curves were determined as described (Isaacs 2013). In vivo growth response to oral daily TasQ (10 mg/kg/d) of TRAMP-C2 mouse prostate cancers was evaluated in C57BL/6J syngeneic wild type vs. NOX-2 vs. iNOS null male mice obtained from Jackson Laboratory (Bar Harbor, ME). Growth response to oral daily TasQ (10 mg/kg/d) of TRAMP-C2 and B6CaP mouse prostate cancers was also evaluated in S100A9 null C57BL′6J male mice obtained from Dmitry Gabrilovich (Wistar Institute). All lines were mycoplasma negative using the MycoSensor PCR Assay kit (Agilent Technologies) and genetically authenticated within the last 6 months using short tandem repeat profiling conducted by the Johns Hopkins Genetic Resource Core Facility. In vitro growth curves were determined as described (Isaacs 2013). Growth response to daily oral TasQ vs. ESATA-20 (both at 10 mg/kg/d) of Myc-CaP-CR mouse prostate cancer was evaluated in syngeneic FVB/NJ castrate male mice from Jackson Laboratory. Animal studies were conducted according to animal protocols approved by Johns Hopkins Animal Care and Use Committee. Tumor volume measurements were as described previously (id.). In vivo experiments were repeated multiple independent times for each model used with 3-5 mice per treatment grouping.
Oral Drug treatment. TasQ at the indicated dose was initially dissolved with equal molar 1 N sodium hydroxide. This solution was diluted with sterile water and the mixture stirred for 1 hr. The pH was then adjusted with 1 N HCl to 8.9 and 200 μL given daily via oral gavage.
Due to these combined effects, maximal growth inhibition of CWR22-RH, a castration-resistant prostate cancer patient-derived xenograft (PDX), is obtained as maintenance therapy with oral daily dosing of ≥5 mg/kg/d (FIG. 1). […] Previous studies documented that in vitro treatment of human prostate cancer cells (LNCaP) with 1-10 μM TasQ rapidly (i.e., ≤1 day) induces the transcription of a series of AHR target genes (e.g., Cyp1a1, Cyp1b1, AHRR, TPARP, GDF15) (Olsson 2010). […]

[2] = system: TRAMP-C2 mouse prostate cancer; assay: In vivo growth of TRAMP-C2 allografts in C57BL/6J wild type vs. NOX2-, iNOS-, S100A9-KO hosts; conditions: daily oral 10 mg/kg/d over a 3-week period; wild type and KO hosts
Description: Prostate Cancer Models. The source, history, and characteristics of the human prostate cancer cell lines and PDXs used, as well as cell culture conditions for their in vitro maintenance and the in vivo protocol for xenograft growth in triple immune-deficient NSG (i.e. NOD.Cg-PrkdcScidIl2rgtmlWji/Szj), adult (>8 week old) male mice obtained from the Sidney Kimmel Comprehensive Cancer Center (SKCCC) Animal Core Facility are described previously (Isaacs 2013; Brennen et al. JCI Insight. 2021, 6(8):e146827; Zhu et al. Oncogene 2020, 39(45): 6935-6949). […] In vitro growth curves were determined as described (Isaacs 2013). In vivo growth response to oral daily TasQ (10 mg/kg/d) of TRAMP-C2 mouse prostate cancers was evaluated in C57BL/6J syngeneic wild type vs. NOX-2 vs. iNOS null male mice obtained from Jackson Laboratory (Bar Harbor, ME). Growth response to oral daily TasQ (10 mg/kg/d) of TRAMP-C2 and B6CaP mouse prostate cancers was also evaluated in S100A9 null C57BL′6J male mice obtained from Dmitry Gabrilovich (Wistar Institute). […] In vitro growth curves were determined as described (Isaacs 2013). Growth response to daily oral TasQ vs. ESATA-20 (both at 10 mg/kg/d) of Myc-CaP-CR mouse prostate cancer was evaluated in syngeneic FVB/NJ castrate male mice from Jackson Laboratory. […]

[3] = system: prostate cancer xenografts; conditions: daily oral 10 mg/kg/d; cited from earlier work

T1 sequence (P35869 11-848): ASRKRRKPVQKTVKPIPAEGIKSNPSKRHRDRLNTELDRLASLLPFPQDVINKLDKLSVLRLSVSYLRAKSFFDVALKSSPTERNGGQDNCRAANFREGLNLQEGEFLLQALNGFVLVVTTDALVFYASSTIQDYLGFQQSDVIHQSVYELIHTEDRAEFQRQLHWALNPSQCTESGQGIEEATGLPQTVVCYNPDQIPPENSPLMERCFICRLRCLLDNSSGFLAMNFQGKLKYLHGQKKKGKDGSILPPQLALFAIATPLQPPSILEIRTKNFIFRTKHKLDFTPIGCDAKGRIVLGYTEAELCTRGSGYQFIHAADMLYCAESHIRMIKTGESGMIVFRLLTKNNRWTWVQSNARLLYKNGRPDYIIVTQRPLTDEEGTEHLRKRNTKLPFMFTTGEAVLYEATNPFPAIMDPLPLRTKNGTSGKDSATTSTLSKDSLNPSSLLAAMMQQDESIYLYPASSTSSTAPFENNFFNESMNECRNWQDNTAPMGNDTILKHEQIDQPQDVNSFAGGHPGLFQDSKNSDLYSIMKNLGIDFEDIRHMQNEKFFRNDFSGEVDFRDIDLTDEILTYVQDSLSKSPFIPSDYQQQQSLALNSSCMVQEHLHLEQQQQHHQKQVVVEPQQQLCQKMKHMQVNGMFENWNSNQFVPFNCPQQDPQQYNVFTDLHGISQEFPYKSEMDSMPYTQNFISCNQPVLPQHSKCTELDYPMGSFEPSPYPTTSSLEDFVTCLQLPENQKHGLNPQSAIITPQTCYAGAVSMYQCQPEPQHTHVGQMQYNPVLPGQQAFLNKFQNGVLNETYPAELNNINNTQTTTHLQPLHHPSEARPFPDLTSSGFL

| Structure (SMILES) | fold lower binding affinity than TasQ (human AHR; competitive PAL AHR binding assay and cell-based AHR-promoter assay) | anti-cancer efficacy compared with TasQ ([1]; 10 mg/kg/d) | CWR22-RH Tumor Growth (% inhibition +/− SD) ([1]; 10 mg/kg/d) | fold more potent than TasQ in inhibiting CWR22-RH xenograft growth ([1]; on a molar basis) | EC50 (human AHR; 20 min competitive binding, liver cytosol of hAHR transgenic mice, read-out: EC50 as competitive ligand for human AHR (PAL assay)) | plasma concentration required to maximally inhibit in vivo prostate cancer xenograft growth ([1]; combined xenograft and PK results) | oral daily dose giving maximal growth inhibition ([1]; maintenance therapy, CWR22-RH PDX) | inhibition of tumor growth [2] | enhancement of hypoxia [3] | pO2 in the TME [3] |
| --- | --- | --- | --- | --- | --- | --- | --- | --- | --- | --- |
| COc1cccc2c1c(O)c(C(=O)N(c1ccc(C(F)(F)F)cc1)C1CCCCC1)c(=O)n2C [ESATA-20] | 10 fold | same maximal anti-cancer efficacy as TasQ | 80 +/− 15% | at least 5 fold | – | – | – | – | – | – |
| COc1cccc2c1c(O)c(C(=O)N(C)c1ccc(C(F)(F)F)cc1)c(=O)n2C [TasQ, Tasquinimod] | – | – | 87 +/− 11% | – | 1000 nM | > 2 µM | ≥ 5 mg/kg/day | > 70% | > 2 fold | 1.4+/−1.0 mmHg |
